Test results: PubChem BioAssay (NCI)
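Method: 48-hour compound exposure of cells in 96-well plates, five concentrations, linear interpolation of endpoints. TGI: total growth inhibition.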

Tests used:
Experiment in all cases: NCI-60 cell line screen, 48 h
786-0 renal = tested on: 786-0 renal
A498 renal = tested on: A498 renal
A549 NSCLC = tested on: A549 NSCLC
ACHN renal = tested on: ACHN renal
BT-549 breast = tested on: BT-549 breast
CAKI-1 renal = tested on: CAKI-1 renal
CCRF-CEM leukemia = tested on: CCRF-CEM leukemia
COLO 205 colon = tested on: COLO 205 colon
DU-145 prostate = tested on: DU-145 prostate
EKVX NSCLC = tested on: EKVX NSCLC
HCC-2998 colon = tested on: HCC-2998 colon
HCT-116 colon = tested on: HCT-116 colon
HCT-15 colon = tested on: HCT-15 colon
HL-60(TB) leukemia = tested on: HL-60(TB) leukemia
HOP-62 NSCLC = tested on: HOP-62 NSCLC
HS 578T breast = tested on: HS 578T breast
HT29 colon = tested on: HT29 colon
IGROV1 ovarian = tested on: IGROV1 ovarian
K-562 leukemia = tested on: K-562 leukemia
KM12 colon = tested on: KM12 colon
LOX IMVI melanoma = tested on: LOX IMVI melanoma
M14 melanoma = tested on: M14 melanoma
MALME-3M melanoma = tested on: MALME-3M melanoma
MCF7 breast = tested on: MCF7 breast
MDA-MB-231 breast = tested on: MDA-MB-231 breast
MDA-MB-435 = tested on: MDA-MB-435
MDA-N = tested on: MDA-N
MOLT-4 leukemia = tested on: MOLT-4 leukemia
NCI-H226 lung = tested on: NCI-H226 lung
NCI-H23 lung = tested on: NCI-H23 lung
NCI-H460 lung = tested on: NCI-H460 lung
NCI/ADR-RES ovarian = tested on: NCI/ADR-RES ovarian
OVCAR-3 ovarian = tested on: OVCAR-3 ovarian
OVCAR-4 ovarian = tested on: OVCAR-4 ovarian
OVCAR-5 ovarian = tested on: OVCAR-5 ovarian
OVCAR-8 ovarian = tested on: OVCAR-8 ovarian
PC-3 prostate = tested on: PC-3 prostate
RPMI-8226 leukemia = tested on: RPMI-8226 leukemia
RXF 393 renal = tested on: RXF 393 renal
SF-268 CNS = tested on: SF-268 CNS
SF-295 CNS = tested on: SF-295 CNS
SF-539 CNS = tested on: SF-539 CNS
SK-MEL-2 melanoma = tested on: SK-MEL-2 melanoma
SK-MEL-28 melanoma = tested on: SK-MEL-28 melanoma
SK-MEL-5 melanoma = tested on: SK-MEL-5 melanoma
SK-OV-3 ovarian = tested on: SK-OV-3 ovarian
SN12C renal = tested on: SN12C renal
SNB-19 CNS = tested on: SNB-19 CNS
SR leukemia = tested on: SR leukemia
SW-620 colon = tested on: SW-620 colon
T-47D breast = tested on: T-47D breast
TK-10 renal = tested on: TK-10 renal
U251 CNS = tested on: U251 CNS
UACC-257 melanoma = tested on: UACC-257 melanoma
UACC-62 melanoma = tested on: UACC-62 melanoma
UO-31 renal = tested on: UO-31 renal
NCI-H522 lung = tested on: NCI-H522 lung
SNB-75 CNS = tested on: SNB-75 CNS

Question: What does the source list for `C=CCCC1CCCCNC1=S` (configuration not stated)?
Answer: TGI (786-0 renal): > 10 µM; TGI (A498 renal): > 10 µM; TGI (A549 NSCLC): > 10 µM; TGI (ACHN renal): > 10 µM; TGI (BT-549 breast): > 10 µM; TGI (CAKI-1 renal): > 10 µM; TGI (CCRF-CEM leukemia): > 10 µM; TGI (COLO 205 colon): > 10 µM; TGI (DU-145 prostate): > 10 µM; TGI (EKVX NSCLC): > 10 µM; TGI (HCC-2998 colon): > 10 µM; TGI (HCT-116 colon): > 10 µM; TGI (HCT-15 colon): > 10 µM; TGI (HL-60(TB) leukemia): > 10 µM; TGI (HOP-62 NSCLC): > 10 µM; TGI (HS 578T breast): > 10 µM; TGI (HT29 colon): > 10 µM; TGI (IGROV1 ovarian): > 10 µM; TGI (K-562 leukemia): > 10 µM; TGI (KM12 colon): > 10 µM; TGI (LOX IMVI melanoma): > 10 µM; TGI (M14 melanoma): > 10 µM; TGI (MALME-3M melanoma): > 10 µM; TGI (MCF7 breast): > 10 µM; TGI (MDA-MB-231 breast): > 10 µM; TGI (MDA-MB-435): > 10 µM; TGI (MDA-N): > 10 µM; TGI (MOLT-4 leukemia): > 10 µM; TGI (NCI-H226 lung): > 10 µM; TGI (NCI-H23 lung): > 10 µM; TGI (NCI-H460 lung): > 10 µM; TGI (NCI/ADR-RES ovarian): > 10 µM; TGI (OVCAR-3 ovarian): > 10 µM; TGI (OVCAR-4 ovarian): > 10 µM; TGI (OVCAR-5 ovarian): > 10 µM; TGI (OVCAR-8 ovarian): > 10 µM; TGI (PC-3 prostate): > 10 µM; TGI (RPMI-8226 leukemia): > 10 µM; TGI (RXF 393 renal): > 10 µM; TGI (SF-268 CNS): > 10 µM; TGI (SF-295 CNS): > 10 µM; TGI (SF-539 CNS): > 10 µM; TGI (SK-MEL-2 melanoma): > 10 µM; TGI (SK-MEL-28 melanoma): > 10 µM; TGI (SK-MEL-5 melanoma): > 10 µM; TGI (SK-OV-3 ovarian): > 10 µM; TGI (SN12C renal): > 10 µM; TGI (SNB-19 CNS): > 10 µM; TGI (SR leukemia): > 10 µM; TGI (SW-620 colon): > 10 µM; TGI (T-47D breast): > 10 µM; TGI (TK-10 renal): > 10 µM; TGI (U251 CNS): > 10 µM; TGI (UACC-257 melanoma): > 10 µM; TGI (UACC-62 melanoma): > 10 µM; TGI (UO-31 renal): > 10 µM

Question: `O=C(O)C1(Cc2ccccc2)Cc2ccccc2C1` was tested. Which TGI (A498 renal) did it give?
Answer: > 100 µM

Question: What about the TGI (A549 NSCLC) of the same molecule?
Answer: > 100 µM

Question: And the TGI (ACHN renal)?
Answer: > 100 µM

Question: And the TGI (BT-549 breast)?
Answer: > 100 µM

Question: What about the TGI (CCRF-CEM leukemia) of the same molecule?
Answer: > 100 µM

Question: And the TGI (COLO 205 colon)?
Answer: > 100 µM

Question: What about the TGI (DU-145 prostate) of the same molecule?
Answer: > 100 µM

Question: What about the TGI (EKVX NSCLC) of the same molecule?
Answer: > 100 µM

Question: What about the TGI (HCC-2998 colon) of the same molecule?
Answer: > 100 µM

Question: And the TGI (HCT-116 colon)?
Answer: > 100 µM

Question: What about the TGI (HCT-15 colon) of the same molecule?
Answer: > 100 µM

Question: And the TGI (HL-60(TB) leukemia)?
Answer: > 100 µM

Question: What about the TGI (HOP-62 NSCLC) of the same molecule?
Answer: > 100 µM

Question: What about the TGI (HS 578T breast) of the same molecule?
Answer: > 100 µM

Question: And the TGI (HT29 colon)?
Answer: > 100 µM

Question: What about the TGI (IGROV1 ovarian) of the same molecule?
Answer: > 100 µM

Question: What about the TGI (K-562 leukemia) of the same molecule?
Answer: > 100 µM

Question: What about the TGI (KM12 colon) of the same molecule?
Answer: > 100 µM

Question: What about the TGI (LOX IMVI melanoma) of the same molecule?
Answer: > 100 µM

Question: What about the TGI (M14 melanoma) of the same molecule?
Answer: > 100 µM

Question: And the TGI (MALME-3M melanoma)?
Answer: > 100 µM

Question: What about the TGI (MCF7 breast) of the same molecule?
Answer: > 100 µM

Question: And the TGI (MDA-MB-231 breast)?
Answer: > 100 µM

Question: And the TGI (MDA-MB-435)?
Answer: > 100 µM

Question: What about the TGI (MDA-N) of the same molecule?
Answer: > 100 µM

Question: What about the TGI (MOLT-4 leukemia) of the same molecule?
Answer: > 100 µM

Question: What about the TGI (NCI-H226 lung) of the same molecule?
Answer: > 100 µM

Question: And the TGI (NCI-H23 lung)?
Answer: > 100 µM

Question: What about the TGI (NCI-H460 lung) of the same molecule?
Answer: > 100 µM

Question: What about the TGI (NCI-H522 lung) of the same molecule?
Answer: > 100 µM

Question: What about the TGI (NCI/ADR-RES ovarian) of the same molecule?
Answer: > 100 µM

Question: And the TGI (OVCAR-3 ovarian)?
Answer: > 100 µM

Question: What about the TGI (OVCAR-4 ovarian) of the same molecule?
Answer: > 100 µM

Question: What about the TGI (OVCAR-5 ovarian) of the same molecule?
Answer: > 100 µM

Question: What about the TGI (OVCAR-8 ovarian) of the same molecule?
Answer: > 100 µM

Question: What about the TGI (PC-3 prostate) of the same molecule?
Answer: > 100 µM

Question: What about the TGI (RPMI-8226 leukemia) of the same molecule?
Answer: > 100 µM

Question: What about the TGI (RXF 393 renal) of the same molecule?
Answer: > 100 µM

Question: And the TGI (SF-268 CNS)?
Answer: > 100 µM

Question: What about the TGI (SF-295 CNS) of the same molecule?
Answer: > 100 µM

Question: And the TGI (SF-539 CNS)?
Answer: > 100 µM

Question: And the TGI (SK-MEL-2 melanoma)?
Answer: > 100 µM

Question: What about the TGI (SK-MEL-28 melanoma) of the same molecule?
Answer: > 100 µM

Question: What about the TGI (SK-MEL-5 melanoma) of the same molecule?
Answer: > 100 µM

Question: And the TGI (SK-OV-3 ovarian)?
Answer: > 100 µM

Question: What about the TGI (SN12C renal) of the same molecule?
Answer: > 100 µM

Question: What about the TGI (SNB-19 CNS) of the same molecule?
Answer: > 100 µM

Question: And the TGI (SNB-75 CNS)?
Answer: > 100 µM

Question: And the TGI (SR leukemia)?
Answer: > 100 µM

Question: What about the TGI (SW-620 colon) of the same molecule?
Answer: > 100 µM

Question: What about the TGI (T-47D breast) of the same molecule?
Answer: > 100 µM

Question: And the TGI (TK-10 renal)?
Answer: > 100 µM

Question: What about the TGI (U251 CNS) of the same molecule?
Answer: > 100 µM

Question: And the TGI (UACC-257 melanoma)?
Answer: > 100 µM

Question: What about the TGI (UACC-62 melanoma) of the same molecule?
Answer: > 100 µM

Question: And the TGI (UO-31 renal)?
Answer: > 100 µM
